From PubChem BioAssay AID248 (DTP/NCI, 2004)
“And” between values parts separate entries of the source, which are not always exact repeats. Equal values may be shown once. Inconclusive results and toxic doses are left out.

Tested on: L1210 leukemia ip in BDF1 mice, survival T/C
Experiment: NCI In Vivo Anticancer Drug Screen. Data for tumor model L1210 Leukemia (intraperitoneal) in B6D2F1 (BDF1) mice
Conditions: endpoint: mean survival time, higher = longer survival
In short: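 Tumor cells were implanted, animals were treated, and survival was followed. The result divides the treated measurement by the vehicle-control measurement.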

[1] = dose: 100.0 mg/kg/injection, schedule: Q04DX003 (ip), vehicle: saline
[2] = dose: 200.0 mg/kg/injection, schedule: Q04DX003 (ip), vehicle: saline
[3] = dose: 400.0 mg/kg/injection, schedule: Q04DX003 (ip), vehicle: saline
[4] = dose: 100.0 mg/kg/injection, schedule: Q04DX002 (ip), vehicle: Klucel (hydroxypropylcellulose) (HPC)
[5] = dose: 200.0 mg/kg/injection, schedule: Q04DX002 (ip), vehicle: Klucel (hydroxypropylcellulose) (HPC)
[6] = dose: 100.0 mg/kg/injection, schedule: Q01DX009 (ip), vehicle: Klucel (hydroxypropylcellulose) (HPC)
[7] = dose: 200.0 mg/kg/injection, schedule: Q01DX009 (ip), vehicle: Klucel (hydroxypropylcellulose) (HPC)
[8] = dose: 100.0 mg/kg/injection, schedule: Q04DX003 (ip), vehicle: Klucel (hydroxypropylcellulose) (HPC)
[9] = dose: 200.0 mg/kg/injection, schedule: Q04DX003 (ip), vehicle: Klucel (hydroxypropylcellulose) (HPC)
[10] = dose: 400.0 mg/kg/injection, schedule: Q04DX003 (ip), vehicle: Klucel (hydroxypropylcellulose) (HPC)
[11] = dose: 100.0 mg/kg/injection, schedule: Q01DX009 (ip), vehicle: saline
[12] = dose: 100.0 mg/kg/injection, schedule: Q04DX002 (ip), vehicle: saline
[13] = dose: 200.0 mg/kg/injection, schedule: Q04DX002 (ip), vehicle: saline

Structure (SMILES): Nc1ccc(CCO)cc1
- T/C [1]: 105 % of control
- T/C [2]: 96 % of control
- T/C [3]: 96 % of control

Structure (SMILES): COc1ccc(N2C=C(c3ccccc3)CC2=O)cc1
- T/C [4]: 94 % of control
- T/C [5]: 94 % of control
- T/C (dose: 400.0 mg/kg/injection, schedule: Q04DX002 (ip), vehicle: Klucel (hydroxypropylcellulose) (HPC)): 97 % of control

Structure (SMILES): O=C1c2ccccc2C(=O)c2cc(-c3ccccc3)ccc21
- T/C (dose: 100.0 mg/kg/injection, schedule: Q01DX001 (ip), vehicle: saline with Tween-80): 90 % of control
- T/C (dose: 200.0 mg/kg/injection, schedule: Q01DX001 (ip), vehicle: saline with Tween-80): 93 % of control
- T/C (dose: 400.0 mg/kg/injection, schedule: Q01DX001 (ip), vehicle: saline with Tween-80): 87 % of control

Structure (SMILES): O=C(Nc1cc(Cl)ccc1Cl)c1cccc(Cl)c1
- T/C [6]: 93 % of control
- T/C [7]: 100 % of control
- T/C (dose: 400.0 mg/kg/injection, schedule: Q01DX009 (ip), vehicle: Klucel (hydroxypropylcellulose) (HPC)): 97 % of control

Structure (SMILES): COC(=O)NS(=O)(=O)C=C(c1ccccc1)c1ccccc1
- T/C [6]: 106 % of control
- T/C [8]: 96 % of control
- T/C [7]: 106 % of control
- T/C [9]: 108 % of control
- T/C [10]: 86 % of control

Structure (SMILES): N=C(N)SCCCSC(=N)N
- T/C (dose: 25.0 mg/kg/injection, schedule: Q04DX003 (ip), vehicle: Klucel (hydroxypropylcellulose) (HPC)): 95 % of control
- T/C (dose: 50.0 mg/kg/injection, schedule: Q04DX003 (ip), vehicle: Klucel (hydroxypropylcellulose) (HPC)): 97 % of control
- T/C [11]: 102 % of control
- T/C [8]: 97 % of control and 98 % of control

Structure (SMILES): COc1ccccc1NC(=O)c1cc2ccccc2cc1O
- T/C [11]: 109 % of control
- T/C [1]: 100 % of control
- T/C (dose: 200.0 mg/kg/injection, schedule: Q01DX009 (ip), vehicle: saline): 104 % of control
- T/C [2]: 100 % of control
- T/C (dose: 400.0 mg/kg/injection, schedule: Q01DX009 (ip), vehicle: saline): 100 % of control
- T/C [3]: 98 % of control

Structure (SMILES): Cc1c(O)ccc([N+](=O)[O-])c1O
- T/C (dose: 6.25 mg/kg/injection, schedule: Q01DX009 (ip), vehicle: saline with Tween-80): 93 % of control
- T/C (dose: 12.5 mg/kg/injection, schedule: Q01DX009 (ip), vehicle: saline with Tween-80): 97 % of control
- T/C (dose: 25.0 mg/kg/injection, schedule: Q01DX009 (ip), vehicle: saline with Tween-80): 97 % of control

Structure (SMILES): CC[N+]1(CC)CCC(OC(=O)C(O)(c2ccccc2)c2ccccc2)C1 (stereo not given)
- T/C (dose: 5.0 mg/kg/injection, schedule: Q01DX001 (ip), vehicle: saline): 97 % of control
- T/C (dose: 10.0 mg/kg/injection, schedule: Q01DX001 (ip), vehicle: saline): 92 % of control
- T/C (dose: 20.0 mg/kg/injection, schedule: Q01DX001 (ip), vehicle: saline): 97 % of control
- T/C (dose: 40.0 mg/kg/injection, schedule: Q01DX001 (ip), vehicle: saline): 97 % of control
- T/C (dose: 80.0 mg/kg/injection, schedule: Q01DX001 (ip), vehicle: saline): 103 % of control

Structure (SMILES): CCOC(=O)/C(C#N)=C\c1cc(=O)c(OC)co1
- T/C [1]: 98 % of control
- T/C [2]: 104 % of control
- T/C [3]: 102 % of control

Structure (SMILES): O=C(O)c1ccc(C(=O)O)nn1
- T/C [12]: 96 % of control
- T/C [13]: 90 % of control

Structure (SMILES): Cc1cc(=O)oc2cc(OC(=O)Nc3ccccc3)ccc12
- T/C (dose: 100.0 mg/kg/injection, schedule: Q01DX001 (ip), vehicle: Klucel (hydroxypropylcellulose) (HPC)): 93 % of control
- T/C [6]: 94 % of control and 105 % of control
- T/C [4]: 108 % of control and 118 % of control
- T/C [8]: 105 % of control
- T/C (dose: 200.0 mg/kg/injection, schedule: Q01DX001 (ip), vehicle: Klucel (hydroxypropylcellulose) (HPC)): 104 % of control
- T/C [7]: 98 % of control
- T/C [5]: 112 % of control and 92 % of control
- T/C [9]: 100 % of control
- T/C (dose: 400.0 mg/kg/injection, schedule: Q01DX001 (ip), vehicle: Klucel (hydroxypropylcellulose) (HPC)): 108 % of control
- T/C [10]: 92 % of control

Structure (SMILES): CCOCCOCCOC(C)Oc1ccccc1OC (stereo not given)
- T/C [12]: 111 % of control
- T/C [13]: 96 % of control
- T/C (dose: 400.0 mg/kg/injection, schedule: Q04DX002 (ip), vehicle: saline): 114 % of control

Structure (SMILES): CCCCCCCCOc1ccc(C(=O)O)cc1
- T/C (dose: 100.0 mg/kg/injection, schedule: Q01DX009 (ip), vehicle: saline with Tween-80): 96 % of control
- T/C (dose: 200.0 mg/kg/injection, schedule: Q01DX009 (ip), vehicle: saline with Tween-80): 96 % of control
- T/C (dose: 400.0 mg/kg/injection, schedule: Q01DX009 (ip), vehicle: saline with Tween-80): 92 % of control

Structure (SMILES): C[NH-].C[NH-].[Br][Pt+2][Br]
- T/C (dose: 0.62 mg/kg/injection, schedule: Q01DX009 (ip), vehicle: water): 118 % of control and 123 % of control
- T/C (dose: 1.5 mg/kg/injection, schedule: Q01DX001 (ip), vehicle: other): 108 % of control
- T/C (dose: 1.5 mg/kg/injection, schedule: Q01DX009 (ip), vehicle: other): 115 % of control
- T/C (dose: 2.0 mg/kg/injection, schedule: Q01DX009 (ip), vehicle: other): 161 % of control
- T/C (dose: 3.0 mg/kg/injection, schedule: Q01DX001 (ip), vehicle: other): 117 % of control
- T/C (dose: 3.0 mg/kg/injection, schedule: Q01DX005 (ip), vehicle: saline with Tween-80): 105 % of control
- T/C (dose: 3.0 mg/kg/injection, schedule: Q01DX009 (ip), vehicle: other): 153 % of control
- T/C (dose: 4.5 mg/kg/injection, schedule: Q01DX009 (ip), vehicle: other): 95 % of control
- T/C (dose: 5.0 mg/kg/injection, schedule: Q01DX009 (ip), vehicle: water): 98 % of control
- T/C (dose: 6.0 mg/kg/injection, schedule: Q01DX001 (ip), vehicle: other): 117 % of control
- T/C (dose: 6.0 mg/kg/injection, schedule: Q01DX009 (ip), vehicle: other): 98 % of control
- T/C (dose: 10.0 mg/kg/injection, schedule: Q01DX009 (ip), vehicle: water): 115 % of control
- T/C (dose: 25.0 mg/kg/injection, schedule: Q01DX001 (ip), vehicle: other): 124 % of control
- T/C (dose: 50.0 mg/kg/injection, schedule: Q01DX001 (ip), vehicle: other): 95 % of control

Structure (SMILES): FC(F)=C(F)I
- T/C (dose: 50.0 mg/kg/injection, schedule: Q01DX005 (ip), vehicle: other): 102 % of control
- T/C (dose: 100.0 mg/kg/injection, schedule: Q01DX005 (ip), vehicle: other): 87 % of control
- T/C (dose: 100.0 mg/kg/injection, schedule: Q04DX002 (ip), vehicle: other): 98 % of control
- T/C (dose: 200.0 mg/kg/injection, schedule: Q01DX005 (ip), vehicle: other): 94 % of control
- T/C (dose: 200.0 mg/kg/injection, schedule: Q04DX002 (ip), vehicle: other): 104 % of control
